Measurements published in patent US8772199B2, “Herbicidal compositions for tolerant or resistant maize crops” (Bayer Intellectual Property GmbH, priority 1998, dated 2014).

Key:
Type in all cases: in vivo
Sinapis arvensis = assay: Field trial with maize, herbicidal action; settings: 15 g of a.s./ha; application 4- to 5-leaf stage; scoring 28 days after application
Procedure: (§1) Transgenic maize plants with a resistance to one or more herbicides (A) together with typical weed plants were grown in the open on 2×5 m plots under natural field conditions; alternatively, weed infestation occurred naturally when the maize plants were grown.
(§2) 2, 4, 6 and 8 weeks after the application, the herbicidal activity of the active substances or active substance mixtures was scored visually with reference to the treated plots in comparison to untreated control plots. The damage to, and the development of, all aerial parts of the plants was recorded. Scoring was done on the basis of a percentage sale (100% action=all plants destroyed; 50% action=50% of the plants and green parts of the plants destroyed; 0% action=no recognizable effect=like control plot. The mean of the score values of in each case 4 plots was calculated.

Digitaria sanguinalis = assay: Field trial with maize, herbicidal action; settings: 300 g of a.s./ha; application 5-6-leaf stage; scoring 11 days after application
Procedure: as §1
(§3) […] The damage to, and the development of, all aerial parts of the plants was recorded. Scoring was done on the basis of a percentage sale (100% action=all plants destroyed; 50% action=50% of the plants and green parts of the plants destroyed; 0% action=no recognizable effect=like control plot. The mean of the score values of in each case 4 plots was calculated.

Panicum dichotomiflorum = assay: Field trial with maize, herbicidal action; settings: 300 g of a.s./ha; application 5-6-leaf stage; scoring 11 days after application
Procedure: as §1, §3

[1] = tested on: Mais LL (Liberty-Link-Mais, maize tolerant or resistant to glufosinate-ammonium); assay: Field trial, damage to transgenic maize (tolerance by crop plants)
Procedure: as §1
The damage to, and the development of, all aerial parts of the plants was recorded.
Abbreviations generally used in the tables: • g of a.s./ha=gram of active substance (100% active substance) per hectare • E^A=Total of the herbicidal effects of the individual applications • E^C Colby's expected value (cf. scoring in Table 1) • “Mais LL”=®Liberty-Link-Mais, maize which is tolerant or resistant to glufosinate-ammonium, […]

Commelina benghalensis = assay: Field trial with maize, herbicidal action; settings: application 3-leaf stage, scoring 42 days after application
Procedure: as §1, §2

Avena fatua = assay: Field trial with maize, herbicidal action; settings: application 2- to 4-leaf stage, scoring 28 days after application
Procedure: as §1, §2

Brachiaria plantaginea = assay: Field trial with maize, herbicidal action; settings: 1500 g of a.s./ha; application 2-leaf stage; scoring 28 days after application
Procedure: as §1, §2

Portulaca oleracea = assay: Field trial with maize, herbicidal action
Procedure: as §1, §3

Convolvulus arvensis = assay: Field trial with maize, herbicidal action; settings: application 3- to 4-leaf stage, scoring 28 days after application
Procedure: as §1, §2

Echinochloa crus-galli = assay: Field trial with maize, herbicidal action
Procedure: as §1, §3

Sorghum halepense = assay: Field trial with maize, herbicidal action; settings: application 4-leaf stage, scoring 28 days after application
Procedure: as §1, §2

Euphorbia heterophylla = assay: Field trial with maize, herbicidal action; settings: for Herbicidal action (%) against Euphorbia heterophylla: application 6-leaf stage, scoring 44 days after application; for Herbicidal action (%) against EPHHL: application 4-leaf stage, scoring 6 weeks after application
Procedure: as §1, §3

Sorghum bicolor = assay: Field trial with maize, herbicidal action; settings: pre-emergence application, scoring 46 days after pre-emergence application
Procedure: as §1, §2

Lamium amplexicaule = assay: Field trial with maize, herbicidal action; settings: application 1-leaf stage, scoring 17 days after application
Procedure: as §1, §3

Fagopyrum esculentum = assay: Field trial with maize, herbicidal action; settings: application 3- to 4-leaf stage, scoring 24 days after application
Procedure: as §1, §3

Galium aparine = assay: Field trial with maize, herbicidal action; settings: application 3- to 4-leaf stage, scoring 24 days after application
Procedure: as §1, §3

COc1nc(C)nc(NC(=O)NS(=O)(=O)c2ccsc2C(=O)O)n1 [(B3.6), 3-[[[[(4-methoxy-6-methyl-1,3,5-triazin-2-yl)amino]carbonyl]amino]sulfonyl]-2-thiophenecarboxylic acid]
Herbicidal action (%) against Sinapis arvensis (Sinapis arvensis): 73%

COc1c(Cl)ccc(Cl)c1C(=O)O [(B3.2), 3,6-dichloro-o-anisic acid]
Herbicidal action (%) against Digitaria sanguinalis (Digitaria sanguinalis): 88%
Herbicidal action (%) against Panicum dichotomiflorum (Panicum dichotomiflorum): 0%
Damage to Mais LL in % ([1]; in vivo): 0%

CCc1cnc(C2=NC(C)(C(C)C)C(=O)N2)c(C(=O)O)c1 (stereo not shown) [(A3.2), imazethapyr]
Herbicidal action (%) against Commelina benghalensis (Commelina benghalensis; 100 g of a.s./ha): 73%
Mais LL ([1]; in vivo): 0

CCc1cccc(C)c1N(C(=O)CCl)C(C)COC (stereo not shown) [(B1.5), 2-chloro-N-(2-ethyl-6-methylphenyl)-N-(2-methoxy-1-methylethyl)-acetamide]
Herbicidal action (%) against Avena fatua (Avena fatua; 1680 g of a.s./ha): 40%
Herbicidal action (%) against Brachiaria plantaginea (Brachiaria plantaginea): 70%
Herbicidal action (%) against Portulaca oleracea (Portulaca oleracea; 1680 g of a.s./ha, application 2- to 4-leaf stage, scoring 28 days after application): 35%

CCc1cccc(CC)c1N(COC)C(=O)CCl [(B1.6), 2-chloro-N-(2,6-diethylphenyl)-N-(methoxymethyl)acetamide]
Herbicidal action (%) against Commelina benghalensis (Commelina benghalensis; 1920 g of a.s./ha): 37%
Mais LL ([1]; 1920 g of a.s./ha, application 3-leaf stage, Table 11, head names no quantity): 0

COCC(C)N(C(=O)CCl)c1c(C)csc1C (stereo not shown) [(B1.12), 2-chloro-N-(2,4-dimethyl-3-thienyl)-N-(2-methoxy-1-methylethyl)acetamide]
Herbicidal action (%) against Convolvulus arvensis (Convolvulus arvensis; 900 g of a.s./ha): 30%

Cc1ccn2nc(S(=O)(=O)Nc3c(F)cccc3F)nc2n1 [(B2.8)]
Herbicidal action (%) against Echinochloa crus-galli (Echinochloa crus-galli; 50 g of a.s./ha, application 3-leaf stage, scoring 21 days after application): 40%
Herbicidal action (%) against Echinochloa crus-galli (Echinochloa crus-galli; 70 g of a.s./ha, application 3-leaf stage, scoring 21 days after application): 65%

O=C(Nc1nc(OC(F)F)cc(OC(F)F)n1)NS(=O)(=O)c1ccccc1C(=O)O [(B1.11), 2-[4,6-bis(difluoromethoxy)pyrimidin-2-ylcarbamoylsulfamoyl]benzoic acid]
Herbicidal action (%) against Sorghum halepense (Sorghum halepense; 10 g of a.s./ha): 62%
Herbicidal action (%) against Sorghum halepense (Sorghum halepense; 20 g of a.s./ha): 93%

O=C(O)COc1ccc(Cl)cc1Cl [(B3.3), 2,4-dichlorophenoxyacetic acid]
Herbicidal action (%) against Convolvulus arvensis (Convolvulus arvensis; 500 g of a.s./ha): 20%

Cc1cc(Cl)ccc1OCC(=O)O [(B3.9), (4-chloro-2-methylphenoxy)acetic acid]
Herbicidal action (%) against Convolvulus arvensis (Convolvulus arvensis; 500 g of a.s./ha): 60%

CS(=O)(=O)c1ccc(C(=O)C2C(=O)CCCC2=O)c(Cl)c1 [(B1.14), 2-(2-chloro-4-mesylbenzoyl)cyclohexane-1,3-dione]
Herbicidal action (%) against Euphorbia heterophylla (Euphorbia heterophylla; 200 g of a.s./ha): 60%
Herbicidal action (%) against Euphorbia heterophylla (Euphorbia heterophylla; 300 g of a.s./ha): 68%
Herbicidal action (%) against Euphorbia heterophylla (Euphorbia heterophylla; 400 g of a.s./ha): 75%
Damage to Mais LL in % ([1]; 200 g of a.s./ha, application 6-leaf stage): 0%
Damage to Mais LL in % ([1]; 300 g of a.s./ha, application 6-leaf stage): 0%
Damage to Mais LL in % ([1]; 400 g of a.s./ha, application 6-leaf stage): 0%

CCOCN(C(=O)CCl)c1c(C)cccc1CC [(B1.4), 2-chloro-N-(ethoxymethyl)-N-(2-ethyl-6-methylphenyl)acetamide]
Herbicidal action (%) against Echinochloa crus-galli (Echinochloa crus-galli; 375 g of a.s./ha, application 3- to 4-leaf stage, scoring 42 days after application): 10%
Herbicidal action (%) against Echinochloa crus-galli (Echinochloa crus-galli; 750 g of a.s./ha, application 3- to 4-leaf stage, scoring 42 days after application): 40%
Herbicidal action (%) against Echinochloa crus-galli (Echinochloa crus-galli; 1500 g of a.s./ha, application 3- to 4-leaf stage, scoring 42 days after application): 45%

CCNc1nc(Cl)nc(NC(C)(C)C#N)n1 [(B1.1), 2-(4-chloro-6-ethylamino-1,3,5-triazin-2-ylamino)-2-methylpropionitrile]
Herbicidal action (%) against Avena fatua (Avena fatua; 2242 g of a.s./ha): 35%
Herbicidal action (%) against Portulaca oleracea (Portulaca oleracea; 2242 g of a.s./ha, application 2- to 4-leaf stage, scoring 28 days after application): 45%

N#Cc1cc(Br)c(O)c(Br)c1 [(B3.1), 3,5-dibromo-4-hydroxybenzonitrile]
Herbicidal action (%) against Avena fatua (Avena fatua; 360 g of a.s./ha): 10%
Herbicidal action (%) against Portulaca oleracea (Portulaca oleracea; 360 g of a.s./ha, application 2- to 4-leaf stage, scoring 28 days after application): 25%
Herbicidal action (%) against Portulaca oleracea (Portulaca oleracea; 360 g of a.s./ha, application 6-leaf stage, scoring 26 days after application): 25%

CS(=O)(=O)c1cc(C(F)(F)F)ccc1C(=O)c1cnoc1C1CC1 [(B2.5), (5-cyclopropyl-4-isoxazolyl)[2-(methylsulfonyl)-4-(trifluoromethyl)phenyl]-methasone]
Herbicidal action (%) against Sorghum bicolor (Sorghum bicolor; 25 g of a.s./ha): 20%
Herbicidal action (%) against Sorghum bicolor (Sorghum bicolor; 50 g of a.s./ha): 40%
Herbicidal action (%) against Sorghum bicolor (Sorghum bicolor; 100 g of a.s./ha): 75%

CS(=O)(=O)c1ccc(C(=O)C2C(=O)CCCC2=O)c([N+](=O)[O-])c1 [(B1.16), 2-(4-mesyl-2-nitrobenzoyl)cyclohexane-1,3-dione]
Herbicidal action (%) against EPHHL (Euphorbia heterophylla; 50 g of a.s./ha): 60%
Herbicidal action (%) against EPHHL (Euphorbia heterophylla; 100 g of a.s./ha): 58%
Herbicidal action (%) against EPHHL (Euphorbia heterophylla; 150 g of a.s./ha): 70%
Damage to Mais LL in % ([1]; 50 g of a.s./ha, application 4-leaf stage): 0%
Damage to Mais LL in % ([1]; 100 g of a.s./ha, application 4-leaf stage): 0%
Damage to Mais LL in % ([1]; 150 g of a.s./ha, application 4-leaf stage): 0%

O=C(O)c1nc(Cl)ccc1Cl [(B3.4), 3,6-dichloro-2-pyridinecarboxylic acid]
Herbicidal action (%) against Echinochloa crus-galli (Echinochloa crus-galli; 100 g of a.s./ha, application 3-leaf stage, scoring 21 days after application): 15%
Mais LL ([1]; 100 g of a.s./ha, application 3-leaf stage, Table 14, head names no quantity): 0

O=C(O)CNCP(=O)(O)O [(A2.1), N-(phosphonomethyl)glycine]
Herbicidal action (%) against Lamium amplexicaule (Lamium amplexicaule; 400 g of a.s./ha): 75%
Herbicidal action (%) against Lamium amplexicaule (Lamium amplexicaule; 600 g of a.s./ha): 90%

COc1nc(NC(=O)NS(=O)(=O)c2ccccc2C(F)(F)F)nc(C(F)(F)F)n1 [(B3.8), N-[[[4-methoxy-6-(trifluoromethyl)-1,3,5-triazin-2-yl)amino]-carbonyl]-2-(trifluoromethyl)benzenesulfonamide]
Herbicidal action (%) against Fagopyrum esculentum (Fagopyrum esculentum; 15 g of a.s./ha): 30%
Herbicidal action (%) against Fagopyrum esculentum (Fagopyrum esculentum; 30 g of a.s./ha): 60%
Herbicidal action (%) against Fagopyrum esculentum (Fagopyrum esculentum; 60 g of a.s./ha): 78%
Herbicidal action (%) against Galium aparine (Galium aparine; 15 g of a.s./ha): 45%
Herbicidal action (%) against Galium aparine (Galium aparine; 30 g of a.s./ha): 65%
Herbicidal action (%) against Galium aparine (Galium aparine; 60 g of a.s./ha): 85%

CCCCCCCCSC(=O)Oc1cc(Cl)nnc1-c1ccccc1 [(B2.2), 6-chloro-3-phenylpyridazin-4-yl S-octyl thiocarbonate]
Herbicidal action (%) against Convolvulus arvensis (Convolvulus arvensis; 900 g of a.s./ha): 40%

CC(C)N(C(=O)COc1nnc(C(F)(F)F)s1)c1ccc(F)cc1 [(B1.13), 4′-fluoro-N-isopropyl-2-(5-trifluoromethyl-1,3,4-thiadiazol-2-yloxy)acetanilide]
Herbicidal action (%) against Echinochloa crus-galli (Echinochloa crus-galli; 125 g of a.s./ha, application 3-leaf stage, scoring 28 days after application): 25%
Herbicidal action (%) against Echinochloa crus-galli (Echinochloa crus-galli; 250 g of a.s./ha, application 3-leaf stage, scoring 28 days after application): 30%
Herbicidal action (%) against Echinochloa crus-galli (Echinochloa crus-galli; 500 g of a.s./ha, application 3-leaf stage, scoring 28 days after application): 55%
